Test results reported in US20070270339A1, “Use of GPCR54 Ligands for the Treatment of Infertility” (SERONO, INC., priority 2004, published 2007).
No end group written: not given here.

What was measured:
[1] = test system: gonadotropic axis (plasma LH and FSH); assay: i.v. injection of Kiss-1: plasma LH and FSH levels, with or without Antide pretreatment; assay type: in vivo, rat
Experimental: (§1) All experiments were conducted in female Sprague-Dawley rats (180-200 g) obtained from Charles River (MA), fed with standard laboratory chow and water ad libitum, kept on 12 h light-dark in temperature and humidity controlled room.
(§2) Ovariectomy and implantation of estrogen-containing capsule. To remove daily variance of plasma estrogen levels due to variable estrous cycle, both ovaries were removed under anesthesia through incision at the animal's back. Right before closure of the incision, two estrogen-containing capsules (0.5 mg/coupsule, Innovative Research of America, FL) were inserted subcutaneously at the middle of animal's back to maintain consistent basal physiological levels of plasma estrogen. Rats were allowed to recover for 7 days.
Jugular cannula insertion and tethering to automated blood sampler. The right jugular vein of anesthetized rats was exposed through a neck incision. A retaining suture was tied to the exposed vein at rostral end to manipulate the vein. The caudal end of the vein was clamped with a small forceps to prevent bleeding while a cannula, a polyethene tubing (OD 1.0 mm), was inserted in the middle of the vein through a 0.5 mm incision made with iris scissors. After the insertion of the cannula, a suture was tied around the vein at the caudal end to secure the cannula within the vein. The incision at the neck was closed with wound clips and the outer end of the cannula was attached to a tubing of an automated blood sampler (Bioanalytical Systems Inc., IN) filled with heparin-containing (20 IU/ml) sterile saline. The automated blood sampler consisting of a turning cage equipped with a food box and a water bottle, a balanced arm, a pumping system, a fraction collector and a controller was used to collect blood samples. A rat inserted of a jugular cannula was tethered to the balanced arm via a loosely-fitting plastic collar. The cage rotates to the counter direction of animal's movement to prevent twisting of the jugular cannula connected to a tubing of the sampler, as well as to allow the rat to eat, drink and move freely during the course of the blood collection. Rats were allowed to recover for 24 hours.
All experiments were carried out around between 13 h and 14 h. […]
(§3) Changes of plasma LH and FSH concentration (ng/ml) after injection were obtained as the area under the curve (AUC). It was first determined for each animal by calculating the sum of post-treatment hormonal levels at 15, 30 and 45 min each of which was subtracted by basal levels (an average of pre-treatment levels at −15 and 0 min), then averaged as a group. Statistical differences among treatment groups were determined by one-way ANOVA followed by LSD as a post-hoc test. […]

[2] = molecular target: GPCR54 (Homo sapiens, UniProt Q969F8); conditions: peptides from placental tissue extract, Kotani et al. 2001; cited from earlier work
[3] = test system: gonadotropic axis (plasma LH and FSH); assay: i.c.v. injection of Kiss-1: plasma LH and FSH levels; assay type: in vivo, rat
Experimental: as §1
Implantation of intracerebroventricular cannula for i.c.v. experiment. The head of anesthetized rats was placed in the stereotaxic instrument and oriented such that the bregma and lambda was horizontal. An incision was made along the sagittal midline in an anterior-to-posterior direction. A hole, 1.5 mm in diameter, was drilled through the skull 0.9 mm posterior and 0.0 mm lateral to bregma. A 25 mm×22 gauge stainless steel cannula was lowered about 7 mm until cerebrospinal fluid could be aspirated from the 3rd ventricle via a 1 cc syringe connected to the cannula by a 5 cm section of Silastic tubing. After sealing the outer opening of the cannula, it was anchored to the skull with three stainless steel screws and dental acrylic cement then the incision was closed. Rats were allowed to recover for 14 days.
as §2
Jugular cannula insertion and tethering to automated blood sampler. The right jugular vein of anesthetized rats was exposed through a neck incision. A retaining suture was tied to the exposed vein at rostral end to manipulate the vein. The caudal end of the vein was clamped with a small forceps to prevent bleeding while a cannula, a polyethene tubing (OD 1.0 mm), was inserted in the middle of the vein through a 0.5 mm incision made with iris scissors. After the insertion of the cannula, a suture was tied around the vein at the caudal end to secure the cannula within the vein. […]
as §3

[4] = test system: LH and FSH release; assay: in vivo comparison of GnRH and Kiss1 on release of LH and FSH over 45 minutes (FIG. 1); design: species or system rat; conditions: single administration, compared with GnRH
Experimental: All experiments were carried out around between 13 h and 14 h. […] Blood samples (100 ul) were removed before (−15 and 0 min) and after (15, 30, 45 min) injection with the automated blood sampler. Each blood sample was replaced with an equivalent volume of the heparin-containing (20 IU/ml) sterile saline. Plasma was extracted and stored at −20° C. until determination of LH and FSH by enzyme-linked immunoassay and radioimmunoassay, respectively.
Changes of plasma LH and FSH concentration (ng/ml) after injection were obtained as the area under the curve (AUC). It was first determined for each animal by calculating the sum of post-treatment hormonal levels at 15, 30 and 45 min each of which was subtracted by basal levels (an average of pre-treatment levels at −15 and 0 min), then averaged as a group. Statistical differences among treatment groups were determined by one-way ANOVA followed by LSD as a post-hoc test. An initial data set is shown in FIGS. 1A-P. Further data are described in Examples 2 and 3 below.

GPCR54, sequence (Q969F8 whole entry): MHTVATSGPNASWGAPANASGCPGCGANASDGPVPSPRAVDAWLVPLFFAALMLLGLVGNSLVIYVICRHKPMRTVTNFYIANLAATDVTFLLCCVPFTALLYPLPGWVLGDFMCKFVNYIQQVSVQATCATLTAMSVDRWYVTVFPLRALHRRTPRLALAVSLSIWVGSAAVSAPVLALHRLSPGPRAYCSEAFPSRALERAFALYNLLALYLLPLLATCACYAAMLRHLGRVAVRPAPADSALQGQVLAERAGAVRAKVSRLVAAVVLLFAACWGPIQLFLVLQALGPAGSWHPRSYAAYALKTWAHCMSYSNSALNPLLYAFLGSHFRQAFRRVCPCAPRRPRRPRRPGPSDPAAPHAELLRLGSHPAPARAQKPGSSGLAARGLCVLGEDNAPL

Substance: Antide [reference compound]
- prevention of GnRH- and Kiss-1-induced elevations of circulating gonadotropins levels ([1]; Antide pretreatment 15 min before injection of 400 ug/kg of Kiss-1): successfully prevented

Substance: GnRH: GnRH, a positive control, obtained from Sigma (QHWSYGLRPG; Gonadoliberin-1; UniProt P01148 24-33, looked up) [reference compound]
- circulating gonadotropins levels ([1]; GnRH positive control, estrogen-treated ovariectomized rats): induced elevations of circulating gonadotropins levels

Substance: SEQ ID NO:5: 14-amino acid kisspeptin from Kiss-1 with RF-amide at the C-terminus (Kotani et al.) (DLPNYNWNSFGLRF-NH2; listed as Homo sapiens)
- agonist activity at GPCR54 [2]: agonists of GPCR54

Substance: SEQ ID NO:6: 13-amino acid kisspeptin from Kiss-1 with RF-amide at the C-terminus (Kotani et al.) (LPNYNWNSFGLRF-NH2; listed as Homo sapiens)
- agonist activity at GPCR54 [2]: agonists of GPCR54

Substance: SEQ ID NO: 4: 54-amino acid kisspeptin from Kiss-1 with RF-amide at the C-terminus (Kotani et al.) (GTSLSPPPESSGSPQQPGLSAPHSRQIPAPQGAVLVQREKDLPNYNWNSFGLRF-NH2; listed as Homo sapiens)
- agonist activity at GPCR54 [2]: agonists of GPCR54

Substance: Tyr-Asn-Trp-Asn-Ser-Phe-Gly-Leu-Arg-Phe-NH2 (YNWNSFGLRF-NH2; listed as Homo sapiens) [Kiss-1]
- plasma FSH levels ([1]; i.v. injection, estrogen-treated ovariectomized rats): dose-dependent increases
- plasma LH levels ([1]; i.v. injection, estrogen-treated ovariectomized rats, with the exception of LH response at the highest dose): dose-dependent increases
- i.c.v. dose to yield FSH response as fraction of i.v. dose ([3]; FSH, i.c.v. versus i.v.): 1/100
- i.c.v. dose to yield LH response as fraction of i.v. dose ([3]; LH, i.c.v. versus i.v.): 1/25
- LH release ([3]; i.c.v. injection, estrogen-treated ovariectomized rats): dose-dependently stimulated LH release
- FSH levels ([3]; i.c.v. injection, higher dose not as effective as the lower dose): significant increase of FSH levels
- LH and FSH production [4]: sufficient to drive LH and FSH production similar to GnRH
